Measurements published in patent publication US20080031912A1, “METHOD FOR CONTROLLING CELL MIGRATION ON A SURFACE” (THE REGENTS OF THE UNIVERSITY OF CALIFORNIA, priority 2006, published 2008).

Assays:
[1] = system: NIH 3T3 cells; assay: Cell migration onto coated half of tissue culture dish; assay type: cell-based; conditions: right half of dish coated with 1 μg/cm^2 of each protein; cells seeded on uncoated half, 7 days
Description: (§1) Cell Culture. NIH 3T3 cells were cultured in DMEM supplemented with 10% calf serum, 1% sodium pyruvate, 1% L-glutamine, 1% penicillin/streptomycin, and maintained in a humidified 5% CO2/95% air incubator at 37° C. Wildtype and pik3R2^−/− MEF cell lines were maintained in DMEM supplemented with 15% FBS and 1% penicillin/streptomycin, and maintained in a humidified 5% CO2, 95% air incubator at 37° C.
(§2) Imaging. NIH 3T3 cells were maintained in complete media (described above) for all experiments. Imaging was done on a Nikon Diaphot 300 inverted microscope with a Hamamatsu Orca ER digital camera controlled by IP lab software (Scanalytics). Images were captured under 10× and 20× phase-contrast microscopy. The cells were under temperature and gas control throughout the duration of the experiments (5% CO2, 95% air, 37° C.). MEF cells were maintained in complete media for all experiments. Imaging was done on a Nikon Diaphot 300 inverted microscope with a Hamamatsu Orca ER digital camera controlled by IP lab, or Metamorph imaging software. Images were captured under 20× and 40× differential interference microscopy (DIC), or fluorescence microscopy. The cells were under temperature and gas control throughout the duration of live cell imaging experiments (5% CO2, 95% air, 37° C.). […]

[2] = system: NIH 3T3 cells; assay: Cell spreading on coated tissue culture dishes (time-lapse microscopy); assay type: cell-based; conditions: surface coated with 1 μg/cm2; observed over 8 hours (3, 6, 8 hours post-plating)
Description: as §1, §2

fibronectin [FN]
cell migration onto coated surface [1]: robust migration
cell spreading on coated surface [2]: spread efficiently
